One data set deals with HL-60. As to the kind of experiment: Cytotoxicity toward HL-60, XTT assay. The format is cell-based, human. The note with it: for IC50: Homo sapiens, HL-60, XTT, 48 h; for SI (HL-60): (IC50 for MRC-5)/(IC50 for HL-60). How it is done: (§1) DMSO was used as vehicle control. […] All experiments were performed in triplicate. […] Cells were exposed for 48 h.
(§2) Table S1 The cytotoxicity of triazole-cored derivatives toward various human lung carcinoma cell lines A549, Thai human cholangiocarcinoma cells HuCCA-1, T-cell acute lymphoblastic leukemia MOLT-3, and acute promyelocytic leukemia HL-60. The inhibitory activities were indicated as IC50 in micromolar scale (µM). The calculated selectivity indices (SI) were reported in square brackets.
(§3) Cancer Cell lines, IC50 (µM), [SI]

The nature of data set [1]: Cytotoxicity toward MRC-5, MTT assay. Format: cell-based. The note with it: human, MRC-5 cells, MRC-5 normal cells. How it is done: as §1
Another data set concerns MOLT-3. As to the kind of experiment: Cytotoxicity toward MOLT-3, XTT assay. The format is cell-based, human. The note with it: for IC50: Homo sapiens, MOLT-3, XTT, 48 h; for SI (MOLT-3): (IC50 for MRC-5)/(IC50 for MOLT-3). How it is done:
as §1, §2, §3

For the next data set, the system named is HuCCA-1. As to the kind of experiment: Cytotoxicity toward HuCCA-1, MTT assay. Format: cell-based, human. The note with it: for IC50: Homo sapiens, HuCC-A1, HuCCA-1, MTT, 48 h. How it is done: as §1, §2, §3
Another data set concerns A549. Nature of the data set: Cytotoxicity toward A549, MTT assay. Format: cell-based, human. The note with it: for IC50: Homo sapiens, A549, MTT, 48 h. How it is done: as §1, §2, §3
The next data set concerns HepG2. As to the kind of experiment: Cytotoxicity toward HepG2, MTT assay. The note with it: for Selectivity index (SI): IC50 MRC-5 / IC50 HepG2; for IC50: read-out: Cytotoxicity HepG2 IC50, HepG2, MTT; for IC50 / Cytotoxicity HepG2 Cell Viability at 25 µM: 72 h; for Cytotoxicity HepG2 Cell Viability at 25 µM: HepG2, 25 µM, MTT.

Procedure for HepG2: DMSO was used as vehicle control. […] All experiments were performed in triplicate. Data were expressed as the IC50 ± SD. […] Cells were exposed for 48 h.

Regarding `COc1ccc(-n2cc(CNC(=O)Nc3ccc(Cl)c(C(F)(F)F)c3)nn2)cc1` [Compound 2s], in the data set on HL-60, the IC50 is more than 100 µM. The compound also showed an IC50 at 48 h in data set [1] of 21.2 ± 2.51 µM.

Consider `O=C(NCc1cn(-c2ccc(Cl)cc2)nn1)Nc1ccc(Cl)c(C(F)(F)F)c1` [Compound 2g], for which the IC50 in the data set with MOLT-3 was more than 100 µM; in the data set with HL-60, more than 100 µM; in the data set on HuCCA-1 it was 33.6 ± 1.83 µM; in the data set with A549, 83 ± 2.7 µM. In data set [1], half-maximal inhibition (IC50 at 48 h) was put at 14.6 ± 4.17 µM.

Regarding `O=C(NCc1cn(-c2ccccc2O)nn1)Nc1ccc(Cl)c(C(F)(F)F)c1` [Compound 2n], the results for the IC50 in the data set with MOLT-3 and in the data set on HL-60 were 39.4 ± 3.52 µM and 51.1 ± 1.77 µM, respectively.

Take `O=C(NCc1cn(-c2ccc(C(F)(F)F)cc2)nn1)Nc1ccc(Cl)c(C(F)(F)F)c1` [Compound 2y, 1-(4-chloro-3-(trifluoromethyl)phenyl)-3-((1-(4-(trifluoromethyl)phenyl)-1H-1,2,3-triazol-4-yl)methyl)urea]: the melting point fell in the range of 199 to 200 °C. In addition, in the data set on MOLT-3, the “SI (MOLT-3)” value was 3.23 and the IC50 worked out at 18.1 ± 0.45 µM. Moreover, in the data set on HL-60, the “SI (HL-60)” value is listed as 3.02 and half-maximal inhibition (IC50) required 19.4 ± 0.5 µM. Further, in the data set with HepG2, the “Selectivity index (SI)” value came to 9.81 and the IC50 is 5.97 ± 2.14 µM. The IC50 at 48 h in data set [1] was found to be 58.6 ± 3.51 µM.

As to `O=C(NCc1cn(-c2ccc(Br)cc2)nn1)Nc1ccc(Cl)c(C(F)(F)F)c1` [Compound 2j], the IC50 in the data set on MOLT-3 was found to be 53.4 ± 24.3 µM; in the data set with HL-60 it was 76 ± 22.6 µM; with HuCCA-1, 10.8 ± 0.36 µM; in the data set with A549 it was 33.8 ± 2.29 µM. In data set [1], half-maximal inhibition (IC50 at 48 h) was put at 60.7 ± 1.88 µM.

In the case of `N#Cc1ccccc1-n1cc(CNC(=O)Nc2ccc(Cl)c(C(F)(F)F)c2)nn1` [Compound 2z, 1-(4-chloro-3-(trifluoromethyl)phenyl)-3-((1-(2-cyanophenyl)-1H-1,2,3-triazol-4-yl)methyl)urea], the melting point was 162 to 163 °C. In the data set on HL-60, the “SI (HL-60)” value was found to be 1.06 and the half-maximal inhibitory concentration (IC50) amounted to 56.4 ± 10.9 µM. Moreover, the “Cytotoxicity HepG2 Cell Viability at 25 µM” value in the data set with HepG2 is listed as 66%. Further, in data set [1], the IC50 at 48 h stood at 59.7 ± 6.63 µM.

As to `O=C(NCc1cn(-c2ccccc2)nn1)Nc1ccc(Cl)c(C(F)(F)F)c1` [Compound 2a], the IC50 in the data set on MOLT-3, with HL-60, in the data set on HuCCA-1 and with A549 was more than 100 µM in each case. Also, the IC50 at 48 h in data set [1] was more than 100 µM.

`Cc1ccccc1-n1cc(CNC(=O)Nc2ccc(Cl)c(C(F)(F)F)c2)nn1` [Compound 2t] came in with an IC50 with HL-60 of 45 ± 4.03 µM. Besides, the IC50 at 48 h in data set [1] is 61.7 ± 3.22 µM.

In the case of `O=C(NCc1cn(-c2ccc(F)cc2)nn1)Nc1ccc(Cl)c(C(F)(F)F)c1` [Compound 2d], the IC50 turned out to be 20.5 ± 1.23 µM in the data set with MOLT-3, 35 ± 9.04 µM with HL-60, 55.4 ± 6.49 µM in the data set on HuCCA-1 and 57.4 ± 8.36 µM in the data set on A549. This compound displayed an IC50 at 48 h in data set [1] of 59.3 ± 1.96 µM.

In the data set with HL-60, `O=C(NCc1cn(-c2cccc(I)c2)nn1)Nc1ccc(Cl)c(C(F)(F)F)c1` [Compound 2l] came in with an IC50 of 33.2 ± 0.58 µM. This compound also returned an IC50 at 48 h in data set [1] of 49.2 ± 2.13 µM.

With `O=C(NCc1cn(-c2ccccc2F)nn1)Nc1ccc(Cl)c(C(F)(F)F)c1` [Compound 2b], the IC50 with MOLT-3 came to 25.3 ± 1.38 µM; in the data set with HL-60, 40.6 ± 4.64 µM; in the data set on HuCCA-1, 69.2 ± 19.2 µM; in the data set with A549, 77.3 ± 1.76 µM. The compound also had an IC50 at 48 h in data set [1] of 73.5 ± 9.14 µM.

In the data set on HL-60, `O=C(NCc1cn(-c2cccc(Cl)c2)nn1)Nc1ccc(Cl)c(C(F)(F)F)c1` [Compound 2f] yielded an IC50 of 37.5 ± 2.23 µM. This compound also gave an IC50 at 48 h in data set [1] of 63.8 ± 3.53 µM.

With `CC(=O)Nc1ccc(-n2cc(CNC(=O)Nc3ccc(Cl)c(C(F)(F)F)c3)nn2)cc1` [Compound 2u, N-(4-(4-((3-(4-chloro-3-(trifluoromethyl)phenyl)ureido)methyl)-1H-1,2,3-triazol-1-yl)phenyl)acetamide], the melting point was in the range of 238 to 239 °C.

Take `O=C(NCc1cn(-c2ccc(I)cc2)nn1)Nc1ccc(Cl)c(C(F)(F)F)c1` [Compound 2m]: the IC50 with MOLT-3 is 29.9 ± 1.51 µM; with HL-60, 49.8 ± 7.19 µM. This compound showed an IC50 at 48 h in data set [1] of 49.9 ± 6.61 µM.

In turn, `O=C(NCc1cn(-c2ccccc2Cl)nn1)Nc1ccc(Cl)c(C(F)(F)F)c1` [Compound 2e] returned an IC50 in the data set on HL-60 of 52.1 ± 13.9 µM. In addition, in data set [1], the midpoint of inhibition, the IC50 at 48 h, lay at 61.4 ± 3.51 µM.

`O=C(NCc1cn(-c2cccc(O)c2)nn1)Nc1ccc(Cl)c(C(F)(F)F)c1` [Compound 2o]: the IC50 in the data set on MOLT-3 amounted to 28.3 ± 4.51 µM; in the data set with HL-60, 39.2 ± 2.72 µM.

`O=C(NCc1cn(-c2ccccc2I)nn1)Nc1ccc(Cl)c(C(F)(F)F)c1` [Compound 2k] came in with an IC50 in the data set on HL-60 of 37.4 ± 2.36 µM. In data set [1], this compound gave an IC50 at 48 h of 49.1 ± 2.95 µM.

As to `O=C(NCc1cn(-c2cccc(F)c2)nn1)Nc1ccc(Cl)c(C(F)(F)F)c1` [Compound 2c], the IC50 with MOLT-3 came to 18.4 ± 0.36 µM; with HL-60, 34.1 ± 11.3 µM; in the data set with HuCCA-1, 44.9 ± 3.84 µM; with A549, 69.4 ± 2.44 µM. Also, half-maximal inhibition in data set [1] (IC50 at 48 h) required 61.6 ± 3.63 µM.

In the data set on HL-60, `O=C(NCc1cn(-c2ccccc2Br)nn1)Nc1ccc(Cl)c(C(F)(F)F)c1` [Compound 2h] returned an IC50 of 37.7 ± 3.88 µM. This compound also came in with an IC50 at 48 h in data set [1] of 52.9 ± 3.1 µM.

With `COc1cccc2c1C(=O)c1c(O)c3c(c(O)c1C2=O)C[C@@](O)(C(=O)CO)C[C@@H]3O[C@H]1C[C@H](N)[C@H](O)[C@H](C)O1` [Doxorubicin, reference compound], the “SI (MOLT-3)” value in the data set on MOLT-3 came out at 226. For the same compound, the IC50 with MOLT-3 was 0.01 µM; in the data set with HL-60, 0.12 ± 0.02 µM; in the data set with HuCCA-1, 1.21 ± 0.04 µM; with A549 it was 0.47 ± 0.02 µM; in the data set on HepG2 it was 0.59 ± 0.1 µM. Further, in the data set with HL-60, the “SI (HL-60)” value is listed as 18.83. The “SI (HuCCA-1)” value in the data set on HuCCA-1 ((IC50 for MRC-5)/(IC50 for HuCCA-1)) was 1.87. Besides, the “SI (A549)” value in the data set on A549 ((IC50 for MRC-5)/(IC50 for A549)) is 4.81. For the same compound, the “Selectivity index (SI)” value in the data set with HepG2 worked out at 3.83. In data set [1], this compound came in with a concentration for half-maximal inhibition (IC50) at 48 h of 2.26 µM.

`O=C(NCc1cn(-c2cccc(Br)c2)nn1)Nc1ccc(Cl)c(C(F)(F)F)c1` [Compound 2i] showed an IC50 in the data set with HL-60 of 35.75 ± 0.34 µM. Besides, in data set [1], inhibition was half-maximal at 53 ± 3.31 µM (IC50 at 48 h).

The compound `COc1cccc(-n2cc(CNC(=O)Nc3ccc(Cl)c(C(F)(F)F)c3)nn2)c1` [Compound 2r] came in with an IC50 in the data set with HL-60 of 42.8 ± 1.95 µM. For the same compound, in data set [1], half-maximal inhibition (IC50 at 48 h) required 76.1 ± 9.18 µM.

In turn, `Cc1cccc(-n2cc(CNC(=O)Nc3ccc(Cl)c(C(F)(F)F)c3)nn2)c1` [Compound 2u] had an IC50 in the data set with HL-60 of more than 100 µM.

On to `O=C(NCc1cn(-c2ccc(O)cc2)nn1)Nc1ccc(Cl)c(C(F)(F)F)c1` [Compound 2p], for which the IC50 came out at 22.5 ± 1.85 µM in the data set on MOLT-3, 32.9 ± 7.77 µM in the data set on HL-60, 87.43 ± 0.79 µM in the data set on HuCCA-1 and 85.9 ± 7.24 µM in the data set on A549. In addition, the IC50 at 48 h in data set [1] was 69.6 ± 5.66 µM.

`O=C(NCc1cn(-c2ccccc2F)nn1)Nc1ccc(Cl)c(C(F)(F)F)c1` [Compound 2b, 1-(4-chloro-3-(trifluoromethyl)phenyl)-3-((1-(2-fluorophenyl)-1H-1,2,3-triazol-4-yl)methyl)urea] showed a melting point of 168 to 169 °C.

Regarding `O=C(NCc1cn(-c2ccccc2C(F)(F)F)nn1)Nc1ccc(Cl)c(C(F)(F)F)c1` [Compound 2w], the IC50 in the data set with MOLT-3 was found to be 30.6 ± 0.8 µM; in the data set on HL-60, 34.5 ± 0.73 µM. For the same compound, 58.8 ± 0.39 µM corresponded to half-maximal inhibition in data set [1] (IC50 at 48 h).

On to `COc1ccccc1-n1cc(CNC(=O)Nc2ccc(Cl)c(C(F)(F)F)c2)nn1` [Compound 2q], for which the midpoint of inhibition in the data set on HL-60, the IC50, lay at 42.4 ± 2.18 µM. Further, the IC50 at 48 h in data set [1] is 68 ± 5.14 µM.

Turning to `Cc1ccc(-n2cc(CNC(=O)Nc3ccc(Cl)c(C(F)(F)F)c3)nn2)cc1` [Compound 2v], the IC50 is 91.1 ± 1.66 µM in the data set on MOLT-3 and more than 100 µM in the data set with HL-60. Further, in data set [1], the IC50 at 48 h amounted to 99.9 ± 0.9 µM.

`O=C(NCc1cn(-c2cccc(C(F)(F)F)c2)nn1)Nc1ccc(Cl)c(C(F)(F)F)c1` [Compound 2x, 1-(4-chloro-3-(trifluoromethyl)phenyl)-3-((1-(3-(trifluoromethyl)phenyl)-1H-1,2,3-triazol-4-yl)methyl)urea] yielded a melting point of 152 to 153 °C. For the same compound, in the data set on MOLT-3, the “SI (MOLT-3)” value was 2.28 and the IC50 came to 27.8 ± 4.56 µM. Also, in the data set on HL-60, the “SI (HL-60)” value was found to be 2.19 and the midpoint of inhibition, the IC50, lay at 28.8 ± 7.46 µM. The “Cytotoxicity HepG2 Cell Viability at 25 µM” value in the data set on HepG2 came to 81%. Also, the IC50 at 48 h in data set [1] was found to be 63.2 ± 1.57 µM.

Source of the values: PMC9147274 (Pharmaceuticals, 2022).
